Source: patent US20240325539A1, “METHODS AND COMPOSITIONS FOR TREATING EPSTEIN BARR VIRUS-ASSOCIATED CANCER” (The Chancellor, Masters and Scholars of the University of …, priority 2020, published 2024)

Assays:
[1] = test system: AGS-EBV cells; assay: RT-qPCR of EBV lytic genes; format: cell-based, human
Source text: RNA was extracted from cells using the RNeasy Mini Kit (Qiagen), following the manufacturer's instructions. Possible contamination with genomic DNA was removed by treatment with DNase I according to the manufacturer's instructions. One μg was used to generate cDNA using the SuperScript Reverse Transcriptase III System following the manufacturer's instructions. QuantiTect SYBR Green PCR Kit was used to perform RT-qPCR using the StepOnePlus real-time PCR system (Applied Biosystems). Reactions were performed in duplicate and in a final volume of 20 μL. Relative mRNA abundances were normalized to endogenous glyceraldehyde 3-phosphate dehydrogenase (GAPDH) mRNA levels. Shown qPCR results were analyzed by the ΔΔCt-method, with the threshold cycles being determined by the Applied Biosystems software.

[2] = test system: AGS-EBV cells; assay: Killing of AGS-EBV cells by Zta-specific TCR-T cells (IncuCyte, Cytotox Red); format: cell-based, human; conditions: for cell death of AGS-EBV cells: HDACi pre-treatment, then primary T cells expressing TCR4, after 8 h of co-culture, compared to DMSO
Method: EBV+GC cells were treated with either 2.5 μM of CXD101, 5 μM of chidamide, or 5 μM of SAHA, and DMSO was used as a negative control. Approximately 10×10^5 AGS-EBV cells were plated in […] the day before treatment to allow 50% confluence. The next day, the media was removed, and the cells were treated for 48 hours with the HDACi or DMSO. After 48 hours, the cells were dissociated with trypsin-EDTA and counted. The dissociated cells were plated in the wells of a flat-bottomed 96-well plate and left to adhere for 4-6 hours before the addition of Zta-specific T cells. The IncuCyte S3 Live-Cell analysis system was used to analyze the interactions between the T cells and the HDACi-treated gastric cells over a period of 24 hours. The cells were cultured at an E:T ratio of 10:1. The IncuCyte® Cytotox Red Reagent for counting dead cells was added to each well at the start of incubation. The treated AGS-EBV cells were co-cultured with the HLA-A*02:01-restricted TCR4 primary T cell clones and the HLA-mismatched control clone, TCR9. After 24 hours of incubation, the supernatant was removed from the wells for quantification of cytokines. The ability of the clones to kill the target cells was assessed using the automated IncuCyte analysis software. The Cytotox Red apoptosis marker that was added to the wells at the start of co-culture was taken up by dead cells, and the overlap area of this red fluorescence with larger, very bright GFP cells was measured in μm^2 per replicate well at each set time point.

[3] = test system: AGS-EBV cells; assay: Zta expression (immunofluorescence and Western blot); format: cell-based, human; conditions: for Zta expression: 5 μM SAHA, 5 μM chidamide, 2.5 μM CXD101
Method: (§1) Protein concentration was determined by the Bradford assay.

[4] = test system: YCCEL1 cells; assay: Western blot for Zta and total acetylation of histone 3; format: cell-based, human; conditions: FIGS. 1C and 9D (YCCEL1; SNU719)
Method: as §1

[5] = test system: NCC-24 cells; assay: Western blot for p53 and Zta; format: cell-based, human; conditions: NCC-24, mutant TP53 (G266R and R273H)
[6] = test system: Burkitt lymphoma cell lines Namalwa, Raji, and Akata; assay: Western blot for Zta and H3-ac in Burkitt lymphoma cell lines; format: cell-based, human; conditions: naturally infected Burkitt lymphoma cell lines
Method: as §1
(§2) CXD101 is currently undergoing clinical trials (Eyre, T. A., et al. (2019). Cancer 125, 99-108.), and chidamide is approved in China by the National Medical Products Administration (NMPA) for treatment of peripheral T-cell lymphoma (Xu, Y., et al. (2017). Drugs of Today; 53.) and breast cancer (Jiang, Z., et al. (2018). Annals of Oncology; 29.). Therefore, chidamide and CXD101 were used to treat naturally-infected Burkitt lymphoma cell lines Namalwa, Raji, and Akata, or the ex vivo infected lymphoblastoid cell line PD-LCL in parallel with YCCEL1 cells. Romidepsin was used to treat the same panel of cells. […] Zta expression level in ex vivo infected B cell line PD-LCL is detectable in DMSO treated cells and it is not affected after HDACi treatment. All HDACis used induced detectable amounts of H3-ac, with cell line-dependent variation (FIG. 1E). To assess the extent of EBV reactivation, mRNA expression of several immediate-early, early, and late lytic genes was analysed (FIG. 9E). […] Up to 5-10% of YCCEL1 and SNU719 cells were positive for late Viral Capsid Antigen (VCA) after chidamide or CXD101 treatment, but not SAHA-treatment. […] Both benzamide- and hydroxymate-based HDACi can induce EBV reactivation in gastric epithelial cancer cells, but benzamide-based HDACis are generally less toxic than hydroxymate-based HDACi.

[7] = test system: PD-LCL cells; assay: Western blot for Zta in lymphoblastoid cell line; format: cell-based, human; conditions: detectable in DMSO treated cells
Method: as §1, §2

[8] = test system: YCCEL1 cells; format: cell-based, human
[9] = test system: PBMCs from an EBV+ healthy donor; assay: IFNγ ELISpot of ex vivo EBV-specific CD8+ T cell responses; format: cell-based, human; conditions: PBMCs with pool of EBV epitopes, 12 hours; range of doses
Source text: To be able to effectively “kick” EBV+GC cells into Zta+ abortive EBV reactivation lytic cycle presented us with an opportunity to “kill” the reactivated EBV+ cancer cells by harnessing the host's immune system, Zta specific T cells in particular as Zta is highly immunogenic (Pudney, V. A., et al. (2005). J Exp Med 201, 349-360) and many EBV seropositive individuals have Zta memory T cells. This study was set out to test whether HDACi have any direct impacts on CD8+ T cell responses to EBV viral antigens. Peripheral blood mononuclear cells (PBMCs) from an EBV+ healthy donor were stimulated with a pool of pre-determined EBV epitopes in the presence or absence of HDACi for 12 hours, and ex vivo EBV-specific CD8+ T cell responses were determined by an IFNγ ELISpot assay. […] In parallel, the optimal dose of each HDACi for AGS-EBV to minimize cell toxicity versus their ability to induce Zta expression was determined (FIG. 15A). To provide a proof of principle, whether reactivation of Zta by HDACi could sensitize tumor cells for recognition and killing by Zta-specific CD8+ T cells was subsequently tested. […] The TCR gene was retrovirally transduced into a TCR-negative T cell line (SKW3) or primary human CD8+ T cells for functional readouts, including cytokine production and killing of the tumor cells.

[10] = test system: YCCEL1 cells; assay: High content imaging of Zta-positive cells (immunofluorescence)
Method: Cells were seeded on 13 mm coverslips or 96 well-plates 24 h prior to the treatment. After washing with PBS, cells were fixed by the addition of 4% formaldehyde (Life Technologies) in PBS for 10 min, washed three times with PBS, and incubated with 0.1% Triton X-100 for 20 min. After three more washes, coverslips were incubated with Signal Enhancer for 30 min. Following one wash, cells were incubated with the primary antibody diluted in antibody diluent (Dako) with a background reducing agent for 90 min. After washing three times, coverslips were incubated with a secondary antibody solution containing DAPI diluted in antibody diluent for 1 h in the dark. Coverslips were washed three times with PBS and once in purified water before coverslips were mounted on Polysine Microscope Adhesion slides with ProLong Gold Antifade Mountant (Life Technologies). Cells affixed on slides were visualized using a Zeiss LSM 710 laser scanning confocal microscope, while cells on 96 well plates were visualized using the Operetta High Content Screening System (PerkinElmer).
Experiments were run in duplicate. Liquid handling for cell plating, drug treatment, and cell fixation was performed using a JANUS PerkinElmer Automated Workstation (PerkinElmer). […] All other staining steps were performed with a FlexDrop PLUS (PerkinElmer). Cells were visualized using a GE IN Cell Analyzer 6000 (GE Healthcare Life Sciences) with a 10× objective. Percentages of Zta-positive cells within the wells were assessed with a protocol established within the Columbus software (PerkinElmer).
The readout was percentage of cells positive for the immediate-early viral transcription factor Zta, as assessed by immunofluorescence staining and confocal microscopy.

SMILES	activation of lytic genes [1]	cell death of AGS-EBV cells [2]	Zta expression [3]	induction of Zta expression (Western blot) [4]	total histone 3 acetylation (H3-ac) [4]	Zta expression (Western blot) ([3]; agent alone)	Zta expression [5]	toxicity induced by T cells ([2]; AGS-EBV, compared to SAHA (P<0.01))	Zta expression [6]	Zta expression level [7]	toxicity (cell number relative to DMSO) [8]	effect on T cell responses to EBV antigens [9]	Zta+ cells ([10]; 5 μM) [%]	Zta+ cells ([10]; 10 μM) [%]	Zta expression / EBV reactivation ([10]; increasing concentrations (FIG. 1B))
O=C(CCCCCCC(=O)Nc1ccccc1)NO [SAHA]	comparable activation of lytic genes	dramatic increase in cell death	strong activation of Zta expression	failure	induced detectable H3-ac										
COc1ccc(C2=N[C@@H](c3ccc(Cl)cc3)[C@@H](c3ccc(Cl)cc3)N2C(=O)N2CCNC(=O)C2)c(OC(C)C)c1 [nutlin-3a]						able to induce high levels of Zta expression	failed to express Zta								
Cc1nn(C)cc1CN1CCC(c2ccc(C(=O)Nc3ccccc3N)cc2)CC1 [CXD101]	comparable activation of lytic genes	dramatic increase in cell death	strong activation of Zta expression					more pronounced	none of these HDACi induced Zta expression	not affected	low toxicity	little, if any, inhibitory effect	36.5	40.7	strong dose-dependent effect on Zta expression
